# Measured values reported in the kinase profiling compilation of Christmann-Franck et al. (2016).
# Experiments:
# Experiment in all cases: KINOMEscan competition binding
# Settings in all cases: compound 10.0 µM
# MAPK14 (human) = MAPK14 (human) (UniProt Q16539)
# AURKC (human) = AURKC (human) (UniProt Q9UQB9)
# TBK1 (human) = TBK1 (human) (UniProt Q9UHD2)
# MAP2K7 (human) = MAP2K7 (human) (UniProt O14733)
# FGFR4 (human) = FGFR4 (human) (UniProt P22455)
# DCLK1 (human) = DCLK1 (human) (UniProt O15075)
# ROCK1 (human) = ROCK1 (human) (UniProt Q13464)
# HIPK4 (human) = HIPK4 (human) (UniProt Q8NE63)
# CDK5 (human) = CDK5 (human) (UniProt Q00535)
# SIK3 (human) = SIK3 (human) (UniProt Q9Y2K2)
# STK32C (human) = STK32C (human) (UniProt Q86UX6)
# ROCK2 (human) = ROCK2 (human) (UniProt O75116)
# LATS1 (human) = LATS1 (human) (UniProt O95835)
# CDK16 (human) = CDK16 (human) (UniProt Q00536)
# ADCK4 (human) = ADCK4 (human) (UniProt Q96D53)
# PTK2B (human) = PTK2B (human) (UniProt Q14289)
# MYLK3 (human) = MYLK3 (human) (UniProt Q32MK0)
# NEK4 (human) = NEK4 (human) (UniProt P51957)
# [1] = system: PIK3CA (human), P42336 [E542K]
# CDKL5 (human) = CDKL5 (human) (UniProt O76039)
# EPHA6 (human) = EPHA6 (human) (UniProt Q9UF33)
# BTK (human) = BTK (human) (UniProt Q06187)
# PIM2 (human) = PIM2 (human) (UniProt Q9P1W9)
# MATK (human) = MATK (human) (UniProt P42679)
# GSK3B (human) = GSK3B (human) (UniProt P49841)
# MST4 (human) = MST4 (human) (UniProt Q9P289)
# CAMKK1 (human) = CAMKK1 (human) (UniProt Q8N5S9)
# HIPK2 (human) = HIPK2 (human) (UniProt Q9H2X6)
# SNRK (human) = SNRK (human) (UniProt Q9NRH2)
# DAPK3 (human) = DAPK3 (human) (UniProt O43293)
# [2] = system: MET (human), P08581 [M1250T]
# CAMK4 (human) = CAMK4 (human) (UniProt Q16566)
# MAP3K1 (human) = MAP3K1 (human) (UniProt Q13233)
# PRKCD (human) = PRKCD (human) (UniProt Q05655)
# CAMK2D (human) = CAMK2D (human) (UniProt Q13557)
# EPHA5 (human) = EPHA5 (human) (UniProt P54756)
# CaMK1 (human) = CaMK1 (human) (UniProt Q14012)
# LTK (human) = LTK (human) (UniProt P29376)
# ACVR2A (human) = ACVR2A (human) (UniProt P27037)
# FLT1 (human) = FLT1 (human) (UniProt P17948)
# PTK2B (human), sequence (Q14289 whole entry, looked up): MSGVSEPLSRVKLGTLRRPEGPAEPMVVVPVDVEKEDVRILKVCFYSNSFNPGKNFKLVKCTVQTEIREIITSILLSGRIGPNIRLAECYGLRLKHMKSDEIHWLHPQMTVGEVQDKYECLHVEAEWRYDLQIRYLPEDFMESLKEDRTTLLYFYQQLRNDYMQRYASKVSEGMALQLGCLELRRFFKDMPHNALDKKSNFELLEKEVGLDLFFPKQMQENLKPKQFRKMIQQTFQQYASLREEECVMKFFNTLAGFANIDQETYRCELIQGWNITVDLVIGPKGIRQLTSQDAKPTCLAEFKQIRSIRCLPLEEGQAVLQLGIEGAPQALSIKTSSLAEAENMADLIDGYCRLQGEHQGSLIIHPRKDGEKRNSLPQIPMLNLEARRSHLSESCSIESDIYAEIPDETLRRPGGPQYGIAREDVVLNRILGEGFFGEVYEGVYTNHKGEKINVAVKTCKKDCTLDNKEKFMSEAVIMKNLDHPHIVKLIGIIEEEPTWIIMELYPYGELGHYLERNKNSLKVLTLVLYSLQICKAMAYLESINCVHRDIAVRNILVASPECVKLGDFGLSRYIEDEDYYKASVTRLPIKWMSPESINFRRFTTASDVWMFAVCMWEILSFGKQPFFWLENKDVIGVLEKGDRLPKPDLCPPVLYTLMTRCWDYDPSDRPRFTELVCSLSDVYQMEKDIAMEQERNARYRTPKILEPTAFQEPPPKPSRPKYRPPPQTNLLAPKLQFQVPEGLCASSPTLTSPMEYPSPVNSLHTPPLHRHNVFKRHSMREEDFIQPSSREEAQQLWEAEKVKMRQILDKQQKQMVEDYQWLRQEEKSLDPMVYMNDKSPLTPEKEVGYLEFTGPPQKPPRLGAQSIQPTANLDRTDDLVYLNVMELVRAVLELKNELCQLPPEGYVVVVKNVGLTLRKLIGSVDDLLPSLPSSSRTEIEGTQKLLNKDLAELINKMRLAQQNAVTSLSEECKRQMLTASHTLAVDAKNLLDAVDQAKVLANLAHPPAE
# MAP3K1 (human), sequence (Q13233 whole entry, looked up): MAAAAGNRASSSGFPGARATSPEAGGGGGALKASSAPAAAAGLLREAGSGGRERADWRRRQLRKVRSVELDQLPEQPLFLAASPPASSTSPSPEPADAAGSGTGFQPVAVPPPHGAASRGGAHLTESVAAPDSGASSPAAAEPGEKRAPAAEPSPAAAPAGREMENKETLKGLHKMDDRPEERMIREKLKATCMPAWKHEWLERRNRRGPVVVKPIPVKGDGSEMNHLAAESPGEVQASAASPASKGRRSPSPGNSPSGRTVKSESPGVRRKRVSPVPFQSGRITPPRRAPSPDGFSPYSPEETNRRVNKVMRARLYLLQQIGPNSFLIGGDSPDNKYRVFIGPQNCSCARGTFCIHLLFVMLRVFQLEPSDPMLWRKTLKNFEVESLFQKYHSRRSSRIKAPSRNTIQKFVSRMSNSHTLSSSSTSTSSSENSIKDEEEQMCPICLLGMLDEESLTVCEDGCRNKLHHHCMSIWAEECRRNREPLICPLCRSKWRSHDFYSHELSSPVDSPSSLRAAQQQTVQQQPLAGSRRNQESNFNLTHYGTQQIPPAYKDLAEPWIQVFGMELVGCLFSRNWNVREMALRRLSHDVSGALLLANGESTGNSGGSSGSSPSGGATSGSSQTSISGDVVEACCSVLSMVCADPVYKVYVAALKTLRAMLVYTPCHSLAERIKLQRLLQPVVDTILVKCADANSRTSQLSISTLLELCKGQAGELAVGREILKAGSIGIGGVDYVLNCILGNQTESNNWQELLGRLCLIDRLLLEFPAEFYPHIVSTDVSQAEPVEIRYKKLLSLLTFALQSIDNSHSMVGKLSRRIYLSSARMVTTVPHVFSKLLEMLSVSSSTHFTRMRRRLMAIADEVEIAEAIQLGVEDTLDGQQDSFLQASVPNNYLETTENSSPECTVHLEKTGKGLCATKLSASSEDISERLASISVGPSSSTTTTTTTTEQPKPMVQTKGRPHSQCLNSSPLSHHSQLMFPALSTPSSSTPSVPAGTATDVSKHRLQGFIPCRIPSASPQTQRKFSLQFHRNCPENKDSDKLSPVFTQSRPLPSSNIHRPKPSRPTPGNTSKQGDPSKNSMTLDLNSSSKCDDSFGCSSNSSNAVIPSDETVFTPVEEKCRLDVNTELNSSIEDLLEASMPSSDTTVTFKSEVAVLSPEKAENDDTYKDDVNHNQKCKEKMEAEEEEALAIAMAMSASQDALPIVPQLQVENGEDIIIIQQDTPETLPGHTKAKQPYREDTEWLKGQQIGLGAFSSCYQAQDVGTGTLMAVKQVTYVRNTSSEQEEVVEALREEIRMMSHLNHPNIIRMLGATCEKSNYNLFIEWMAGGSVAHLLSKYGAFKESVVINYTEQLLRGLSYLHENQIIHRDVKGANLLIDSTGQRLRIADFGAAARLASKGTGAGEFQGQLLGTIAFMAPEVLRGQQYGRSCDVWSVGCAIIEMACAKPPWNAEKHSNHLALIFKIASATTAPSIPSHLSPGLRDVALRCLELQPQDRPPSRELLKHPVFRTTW
# FGFR4 (human), sequence (P22455 whole entry, looked up): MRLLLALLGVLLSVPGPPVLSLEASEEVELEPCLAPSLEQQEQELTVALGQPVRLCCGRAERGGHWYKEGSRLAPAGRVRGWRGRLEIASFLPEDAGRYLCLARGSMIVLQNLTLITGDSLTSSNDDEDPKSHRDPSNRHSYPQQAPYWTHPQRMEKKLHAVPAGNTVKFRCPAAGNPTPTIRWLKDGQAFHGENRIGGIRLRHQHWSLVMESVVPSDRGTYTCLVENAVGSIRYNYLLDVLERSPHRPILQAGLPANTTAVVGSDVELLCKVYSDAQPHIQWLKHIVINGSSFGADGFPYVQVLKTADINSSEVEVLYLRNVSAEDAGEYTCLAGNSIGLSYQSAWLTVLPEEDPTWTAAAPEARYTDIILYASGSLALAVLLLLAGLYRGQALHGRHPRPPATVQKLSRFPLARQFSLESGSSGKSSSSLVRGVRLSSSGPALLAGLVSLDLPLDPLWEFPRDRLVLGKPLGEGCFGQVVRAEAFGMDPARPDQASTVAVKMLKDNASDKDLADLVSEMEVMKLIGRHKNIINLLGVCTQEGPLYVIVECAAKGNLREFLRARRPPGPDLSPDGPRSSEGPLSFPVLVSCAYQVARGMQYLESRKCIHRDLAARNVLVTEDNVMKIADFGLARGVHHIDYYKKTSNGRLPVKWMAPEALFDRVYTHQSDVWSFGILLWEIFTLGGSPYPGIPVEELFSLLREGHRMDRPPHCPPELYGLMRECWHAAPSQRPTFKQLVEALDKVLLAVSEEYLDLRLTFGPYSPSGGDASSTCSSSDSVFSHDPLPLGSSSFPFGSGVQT
# CDKL5 (human), sequence (O76039 whole entry, looked up): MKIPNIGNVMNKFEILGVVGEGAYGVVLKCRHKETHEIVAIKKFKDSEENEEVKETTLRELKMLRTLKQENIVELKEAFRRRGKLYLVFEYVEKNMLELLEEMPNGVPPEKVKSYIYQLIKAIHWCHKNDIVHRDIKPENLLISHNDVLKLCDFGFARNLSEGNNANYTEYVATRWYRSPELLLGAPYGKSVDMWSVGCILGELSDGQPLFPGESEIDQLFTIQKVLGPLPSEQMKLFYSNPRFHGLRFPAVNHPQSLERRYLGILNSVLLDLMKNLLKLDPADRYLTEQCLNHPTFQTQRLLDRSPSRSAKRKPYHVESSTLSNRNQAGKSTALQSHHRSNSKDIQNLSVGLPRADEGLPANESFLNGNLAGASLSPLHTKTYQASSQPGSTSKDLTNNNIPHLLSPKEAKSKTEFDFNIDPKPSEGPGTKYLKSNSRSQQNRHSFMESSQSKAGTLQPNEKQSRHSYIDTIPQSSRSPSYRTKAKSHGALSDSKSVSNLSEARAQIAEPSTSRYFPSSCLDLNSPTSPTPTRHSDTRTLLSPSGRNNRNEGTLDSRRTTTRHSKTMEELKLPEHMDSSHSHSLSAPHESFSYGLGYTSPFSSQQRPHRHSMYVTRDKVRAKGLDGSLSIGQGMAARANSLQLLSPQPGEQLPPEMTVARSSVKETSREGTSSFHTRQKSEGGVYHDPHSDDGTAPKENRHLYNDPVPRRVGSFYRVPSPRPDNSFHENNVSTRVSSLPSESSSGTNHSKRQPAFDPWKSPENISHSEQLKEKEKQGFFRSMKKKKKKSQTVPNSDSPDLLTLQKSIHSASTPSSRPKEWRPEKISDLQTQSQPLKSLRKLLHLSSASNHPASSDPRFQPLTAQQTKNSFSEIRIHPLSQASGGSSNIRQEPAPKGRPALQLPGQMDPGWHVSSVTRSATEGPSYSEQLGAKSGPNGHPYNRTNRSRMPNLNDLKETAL
# MAP2K7 (human), sequence (O14733 whole entry, looked up): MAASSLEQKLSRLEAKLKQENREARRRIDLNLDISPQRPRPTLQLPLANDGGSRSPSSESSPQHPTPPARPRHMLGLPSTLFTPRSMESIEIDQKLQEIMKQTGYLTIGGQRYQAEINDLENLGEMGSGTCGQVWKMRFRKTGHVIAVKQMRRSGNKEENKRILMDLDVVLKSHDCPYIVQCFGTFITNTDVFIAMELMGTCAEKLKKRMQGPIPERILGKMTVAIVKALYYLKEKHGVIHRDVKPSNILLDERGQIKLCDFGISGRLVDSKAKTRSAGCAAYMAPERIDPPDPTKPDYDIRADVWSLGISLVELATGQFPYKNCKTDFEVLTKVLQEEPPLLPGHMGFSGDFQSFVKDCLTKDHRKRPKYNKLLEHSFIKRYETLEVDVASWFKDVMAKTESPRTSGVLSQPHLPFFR
# CaMK1 (human), sequence (Q14012 whole entry, looked up): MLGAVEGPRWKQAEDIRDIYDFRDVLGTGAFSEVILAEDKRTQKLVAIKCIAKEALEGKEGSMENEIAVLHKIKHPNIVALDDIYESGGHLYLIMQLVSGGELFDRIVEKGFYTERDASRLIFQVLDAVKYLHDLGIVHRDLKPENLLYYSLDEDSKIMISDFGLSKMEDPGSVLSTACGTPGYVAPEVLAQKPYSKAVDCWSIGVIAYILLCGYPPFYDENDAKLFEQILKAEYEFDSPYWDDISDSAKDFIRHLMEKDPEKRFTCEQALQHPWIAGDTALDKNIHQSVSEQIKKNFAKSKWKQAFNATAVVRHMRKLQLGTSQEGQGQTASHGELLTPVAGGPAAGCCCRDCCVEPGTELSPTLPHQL
SMILES,"kinase still bound, per cent of control (MAPK14 (human)) [%]","kinase still bound, per cent of control (AURKC (human)) [%]","kinase still bound, per cent of control (TBK1 (human)) [%]","kinase still bound, per cent of control (MAP2K7 (human)) [%]","kinase still bound, per cent of control (FGFR4 (human)) [%]","kinase still bound, per cent of control (DCLK1 (human)) [%]","kinase still bound, per cent of control (ROCK1 (human)) [%]","kinase still bound, per cent of control (HIPK4 (human)) [%]","kinase still bound, per cent of control (CDK5 (human)) [%]","kinase still bound, per cent of control (SIK3 (human)) [%]","kinase still bound, per cent of control (STK32C (human)) [%]","kinase still bound, per cent of control (ROCK2 (human)) [%]","kinase still bound, per cent of control (LATS1 (human)) [%]","kinase still bound, per cent of control (CDK16 (human)) [%]","kinase still bound, per cent of control (ADCK4 (human)) [%]","kinase still bound, per cent of control (PTK2B (human)) [%]","kinase still bound, per cent of control (MYLK3 (human)) [%]","kinase still bound, per cent of control (NEK4 (human)) [%]","kinase still bound, per cent of control [1] [%]","kinase still bound, per cent of control (CDKL5 (human)) [%]",further results
CC1=C(C(=O)Nc2cc3cn[nH]c3cc2F)C(c2ccc(C(F)(F)F)cc2)CC(=O)N1 (stereo not given),100,33,82,80,67,65,0.3,86,80,94,48,0.1,60,100,94,100,92,85,92,45,"kinase still bound, per cent of control (EPHA6 (human)): 95%; kinase still bound, per cent of control (BTK (human)): 14%; kinase still bound, per cent of control (PIM2 (human)): 100%; kinase still bound, per cent of control (MATK (human)): 68%; kinase still bound, per cent of control (GSK3B (human)): 89%; kinase still bound, per cent of control (MST4 (human)): 24%; kinase still bound, per cent of control (CAMKK1 (human)): 72%; kinase still bound, per cent of control (HIPK2 (human)): 87%; kinase still bound, per cent of control (SNRK (human)): 100%; kinase still bound, per cent of control (DAPK3 (human)): 77%; kinase still bound, per cent of control [2]: 23%; kinase still bound, per cent of control (CAMK4 (human)): 100%; kinase still bound, per cent of control (MAP3K1 (human)): 90%; kinase still bound, per cent of control (PRKCD (human)): 39%; kinase still bound, per cent of control (CAMK2D (human)): 100%; kinase still bound, per cent of control (EPHA5 (human)): 86%; kinase still bound, per cent of control (CaMK1 (human)): 93%; kinase still bound, per cent of control (LTK (human)): 100%; kinase still bound, per cent of control (ACVR2A (human)): 88%; kinase still bound, per cent of control (FLT1 (human)): 77%"
N#C/C(=C1/Nc2ccccc2S1)c1ccnc(NCCc2cccnc2)n1,57,67,81,100,100,78,37,42,100,100,99,23,100,44,45,89,100,100,100,82,"kinase still bound, per cent of control (EPHA6 (human)): 99%; kinase still bound, per cent of control (BTK (human)): 77%; kinase still bound, per cent of control (PIM2 (human)): 20%; kinase still bound, per cent of control (MATK (human)): 100%; kinase still bound, per cent of control (GSK3B (human)): 0.15%; kinase still bound, per cent of control (MST4 (human)): 100%; kinase still bound, per cent of control (CAMKK1 (human)): 83%; kinase still bound, per cent of control (HIPK2 (human)): 1.4%; kinase still bound, per cent of control (SNRK (human)): 2.7%; kinase still bound, per cent of control (DAPK3 (human)): 45%; kinase still bound, per cent of control [2]: 100%; kinase still bound, per cent of control (CAMK4 (human)): 100%; kinase still bound, per cent of control (MAP3K1 (human)): 65%; kinase still bound, per cent of control (PRKCD (human)): 100%; kinase still bound, per cent of control (CAMK2D (human)): 64%; kinase still bound, per cent of control (EPHA5 (human)): 99%; kinase still bound, per cent of control (CaMK1 (human)): 73%; kinase still bound, per cent of control (LTK (human)): 100%; kinase still bound, per cent of control (ACVR2A (human)): 86%; kinase still bound, per cent of control (FLT1 (human)): 100%"
O=c1[nH]c2ccccc2n1C1CCN(Cc2ccc(-c3nc4cc5[nH]cnc5cc4nc3-c3ccccc3)cc2)CC1,88,88,70,80,100,86,66,72,100,88,87,73,93,97,100,91,100,93,58,86,"kinase still bound, per cent of control (EPHA6 (human)): 98%; kinase still bound, per cent of control (BTK (human)): 100%; kinase still bound, per cent of control (PIM2 (human)): 91%; kinase still bound, per cent of control (MATK (human)): 70%; kinase still bound, per cent of control (GSK3B (human)): 89%; kinase still bound, per cent of control (MST4 (human)): 100%; kinase still bound, per cent of control (CAMKK1 (human)): 100%; kinase still bound, per cent of control (HIPK2 (human)): 88%; kinase still bound, per cent of control (SNRK (human)): 91%; kinase still bound, per cent of control (DAPK3 (human)): 85%; kinase still bound, per cent of control [2]: 28%; kinase still bound, per cent of control (CAMK4 (human)): 100%; kinase still bound, per cent of control (MAP3K1 (human)): 80%; kinase still bound, per cent of control (PRKCD (human)): 81%; kinase still bound, per cent of control (CAMK2D (human)): 100%; kinase still bound, per cent of control (EPHA5 (human)): 100%; kinase still bound, per cent of control (CaMK1 (human)): 87%; kinase still bound, per cent of control (LTK (human)): 56%; kinase still bound, per cent of control (ACVR2A (human)): 88%; kinase still bound, per cent of control (FLT1 (human)): 89%"
